# Laboratory results published in patent publication US20030055065A1, “Tricyclic amide and urea compounds useful for inhibition of G-protein function and for treatment of proliferative diseases” (priority 1993, published 2003).
# “And” between values parts separate entries of the source, which are not always exact repeats. Equal entries are not always repeated.
# Molecular target: T1, farnesyl protein transferase (FPT), partially purified from rat brain (Rattus norvegicus, UniProt Q02293+Q04631)
# T1 construct: were partially purified from rat brain by ammonium sulfate fractionation followed by Q-Sepharose
# T1 sequence (Q02293 whole entry, one chain of several): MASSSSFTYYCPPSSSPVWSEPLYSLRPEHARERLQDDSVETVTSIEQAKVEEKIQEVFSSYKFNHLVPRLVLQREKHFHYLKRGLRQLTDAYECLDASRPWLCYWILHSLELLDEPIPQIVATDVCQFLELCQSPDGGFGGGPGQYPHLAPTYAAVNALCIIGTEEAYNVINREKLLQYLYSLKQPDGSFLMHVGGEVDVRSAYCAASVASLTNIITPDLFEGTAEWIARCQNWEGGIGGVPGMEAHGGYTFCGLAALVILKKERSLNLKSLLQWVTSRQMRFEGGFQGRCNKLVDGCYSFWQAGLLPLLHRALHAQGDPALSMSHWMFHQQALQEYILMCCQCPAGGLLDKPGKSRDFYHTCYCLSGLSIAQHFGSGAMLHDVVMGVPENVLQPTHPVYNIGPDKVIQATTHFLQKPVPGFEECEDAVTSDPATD
# Experiment: Inhibition of farnesyl protein transferase (transfer of [3H]farnesyl to Ras-CVLS)
# Type: biochemical
# Settings: (4.3) μM
# Protocol: 1. In vitro enzyme assays: Inhibition of farnesyl protein transferase and geranylgeranyl protein transferase.
# Human farnesyl protein transferase was also expressed in E. coli, using cDNA clones encoding both the α and β subunits. […] Human farnesyl protein transferase was partially-purified from the soluble protein fraction of E. coli as described above. […] Two forms of val^12-Ha-Ras protein were prepared as substrates for these enzymes, differing in their carboxy terminal sequence. One form terminated in cysteine-valine-leucine-serine (Ras-CVLS) the other in cystein-valine-leucine-leucine (Ras-CVLL). Ras-CVLS is a substrate for the farnesyl protein transferase while Ras-CVLL is a substrate for geranylgeranyl protein transferase I. The cDNAs encoding these proteins were constructed so that the proteins contain an amino-terminal extension of 6 histidine residues. Both proteins were expressed in Escherichia coli and purified using metal chelate affinity chromatography. The radiolabelled isoprenyl pyrophosphate substrates, [^3H]farnesyl pyrophosphate and [3H]geranylgeranyl pyrophosphate, were purchased from DuPont/New England Nuclear.
# The reaction was allowed to proceed for 30 minutes at room temperature and then stopped with 0.5 ml of 4% sodium dodecyl sulfate (SDS) followed by 0.5 ml of cold 30% trichloracetic acid (TCA). Samples were allowed to sit on ice for 45 minutes and precipitated Ras protein was then collected on GF/C filter paper mats using a Brandel cell harvester. […] Percent inhibition was calculated relative to the DMSO vehicle control.
row,Compound,FPT inhibition at the concentration in parentheses
1,O=C(Cc1ccc[n+]([O-])c1)N1CCC(=C2c3ccc(Cl)cc3CCc3cc(F)cnc32)CC1 [Example 411-Q],33 (4.3)

# Same assay, conditions: Ras-CVLS farnesylation, partially purified rat brain FPT; read-out: FPT IC50
row,Compound,IC50
1,Cc1cc(C(=O)N2CCC(=C3c4ccc(Cl)cc4CCc4cccnc43)CC2)cc(Cl)[n+]1[O-] [Example 37],11.4 µM
2,CC(=O)Nc1cnc2c(c1)CCc1cc(Cl)ccc1C2=C1CCN(C(=O)Cc2ccncc2)CC1 [Example 403],1000 µM
3,O=C(C1CCNCC1)N1CCC(=C2c3ccc(Cl)cc3CCc3cccnc32)CC1 [Example 100],4.5 µM
4,CCOC(=O)C(=O)N1CCC(=C2c3ccc(Cl)cc3CCc3cccnc32)CC1 [Example 56],7.9 µM
5,O=C(Nc1cccnc1)N1CCN([C@@H]2c3ccc(Cl)cc3CCc3cccnc32)CC1 [224 (6.10)],3.2 µM
6,COCC(=O)N1CCC(=C2c3ccc(F)cc3CCc3cccnc32)CC1 [Example 145],> 10 µM
7,Cn1cc(C(=O)N2CCC(=C3c4ccc(Cl)cc4CCc4cccnc43)CC2)ccc1=O [Example 36],11.2 µM
8,O=C(c1cc[nH]c(=O)c1)N1CCC(=C2c3ccc(Cl)cc3CCc3cccnc32)CC1 [Example 25],6.25 µM
9,CC(=O)N(C)CCC(=O)N1CCC(=C2c3ccc(Cl)cc3CCc3cccnc32)CC1 [Example 113],10.3 µM
10,Cc1ccc2c(O)c(C(=O)N3CCC(=C4c5ccc(Cl)cc5CCc5cccnc54)CC3)cnc2n1 [Example 20],5.2 µM
11,O=C(c1ccco1)N1CCC(=C2c3ccc(Cl)cc3CCc3cccnc32)CC1 [Example 52],4.9 µM
12,CC(=O)N1CCCC(C(=O)N2CCN(C3c4ccc(Cl)cc4CCc4cccnc43)CC2)C1 (stereo not shown) [Example 194],4.3 µM
13,NCC(=O)N1CCC(=C2c3ccc(Cl)cc3CCc3cccnc32)CC1 [Example 118],22.3 µM
14,O=C(c1cc[nH]c1)N1CCC(=C2c3ccc(Cl)cc3CCc3cccnc32)CC1 [Example 16],4.8 µM
15,O=C(c1cnccn1)N1CCC(=C2c3ccc(Cl)cc3CCc3cccnc32)CC1 [Example 27],7.3 µM
16,C=CC(=O)N1CCC(=C2c3ccc(Cl)cc3CCc3cccnc32)CC1 [Example 115],14.2 µM

row,Compound,IC50
1,CC(=O)N1CCC(=C2c3ccc(Cl)cc3CCc3cc(C)cnc32)CC1 [Example 64],10.6 µM
2,O=C(c1cn[nH]c1)N1CCC(=C2c3ccc(Cl)cc3CCc3cccnc32)CC1 [Example 18],4.9 µM
3,CC(=O)N1CCCC(CC(=O)N2CCN(C3c4ccc(Cl)cc4CCc4cccnc43)CC2)C1 (stereo not shown) [Example 205],3.1 µM
4,CC(=O)N1CCC(=C2c3ccc(Cl)cc3CCc3cc(Br)c[n+]([O-])c32)CC1 [Example 74B],4 µM
5,O=C(c1cc[n+]([O-])cc1)N1CCC(=C2c3ccccc3CCc3ccccc32)CC1 [Example 151],15 µM
6,O=C(Cc1cccs1)N1CCC(=C2c3ccc(Cl)cc3CCc3cccnc32)CC1 [Example 102],4.6 µM
7,O=C(c1cccnc1)N1CCC(=C2c3ccc(Cl)cc3CCc3cccnc32)CC1 [Example 26],6.3 µM
8,O=C(O)c1ccc(C(=O)N2CCC(=C3c4ccc(Cl)cc4CCc4cccnc43)CC2)cc1 [Example 106],5.3 µM
9,COc1ccnc2c1CCc1cc(Cl)ccc1C2=C1CCN(C(C)=O)CC1 [Example 136],11.5 µM
10,CN1CCCC(C(=O)N2CCN(C3c4ccc(Cl)cc4CCc4cccnc43)CC2)C1 (stereo not shown) [Example 195],6.8 µM
11,O=C(Cc1ccncc1)N1CCC(=C2c3ccc(Cl)cc3CCc3ccc[n+]([O-])c32)CC1 [Example 230],2.06 µM
12,CC(C)(C)CC(=O)N1CCC(=C2c3ccc(Cl)cc3CCc3cccnc32)CC1 [Example 57],9.8 µM
13,COC(=O)c1ccc(C(=O)N2CCC(=C3c4ccc(Cl)cc4CCc4cccnc43)CC2)cc1 [Example 13],4.5 µM
14,CC(=O)N1CCC(=C2c3ccc(Cl)cc3CCc3cc(Cl)cnc32)CC1 [Example 62],7.8 µM
15,C#CC(=O)N1CCC(=C2c3ccc(Cl)cc3CCc3cccnc32)CC1 [Example 9],4 µM

# More lines, now with the values ahead:
row,IC50,Compound
1,7 µM,CN1CCN(CC(=O)N2CCC(=C3c4ccc(Cl)cc4CCc4cccnc43)CC2)CC1 [Example 410-H]
2,0.82 µM,O=C(Nc1cccnc1)N1CCC(=C2c3ccc(Cl)cc3CCc3c(On4nnc5ccccc54)ccnc32)CC1 [Example 262]
3,3.12 µM,O=C(Cc1cccnc1)N1CCC(=C2c3ccc(Cl)cc3CCc3cc(O)cnc32)CC1 [Example 240]
4,2.9 µM,O=C(Cc1ccncc1)N1CCC(C2c3ccc(Cl)cc3C([N+](=O)[O-])=Cc3cccnc32)CC1 (stereo not shown) [Example 410-L]
5,4.5 µM,O=C(Cc1ccncc1)N1CCC(=C2c3ccc(Cl)cc3CC(O)c3cccnc32)CC1 (stereo not shown) [Example 282]
6,1.89 µM,CSCC[C@H](N)C(=O)N1CCC(CC(=O)N2CCN(C3c4ccc(Cl)cc4CCc4cccnc43)CC2)CC1 (stereo partly shown) [Example 433-B]
7,2.5 µM,C[C@H](N)C(=O)N1CCC(CC(=O)N2CCN(C3c4ccc(Cl)cc4CCc4cccnc43)CC2)CC1 (stereo partly shown) [Example 433]
8,1.17 µM,CSc1cc(CC(=O)N2CCC(=C3c4ccc(Cl)cc4CCc4cc(Br)cnc43)CC2)ccn1 [Example 410-V]
9,0.062 µM and 0.073 µM,O=C(Cc1ccncc1)N1CCC(=C2c3ccc(Cl)cc3CCc3c2ncc(Br)c3Cl)CC1 [Example 356]
10,1.3 µM,CCNc1cnc2c(c1)CCc1cc(Cl)ccc1C2=C1CCN(C(=O)Cc2ccncc2)CC1 [Example 424]
11,1.22 µM,CC(C)(C(=O)N1CCC(C2c3ccc(Cl)cc3C=Cc3cccnc32)CC1)c1cccnc1 (stereo not shown) [Example 268]

# Same assay, conditions: at 10 μM
row,Compound,FPT inhibition
1,O=C([C@H](Cc1ccccc1)N1C(=O)c2ccccc2C1=O)N1CCN(C2c3ccc(Cl)cc3CCc3cccnc32)CC1 (stereo partly shown) [Example 216],34% @

# Same assay, conditions: at 11 μM
row,Compound,FPT inhibition
1,CC(C)(C)OC(=O)N1CCC(C(=O)N2CCN(C3c4ccc(Cl)cc4CCc4cccnc43)CC2)CC1 (stereo not shown) [Example 202],20% @
2,COc1cc(C(=O)N2CCC(=C3c4ccc(Cl)cc4CCc4cccnc43)CC2)cc(OC)c1OC [Example 119],41% at 11 μM

# Same assay, conditions: at 12.1 μM
row,Compound,FPT inhibition
1,CC(=O)N1CCC(=C2c3ccc(Cl)cc3CCc3ccc[n+](C)c32)CC1 [Example 130],7% at 12.1 μM

# Same assay, conditions: at 12.6 μM
row,Compound,FPT inhibition
1,O=C1CCC(C(=O)N2CCC(=C3c4ccc(Cl)cc4CCc4cccnc43)CC2)N1 (stereo not shown) [Example 123],23% at 12.6 μM

# Same assay, conditions: at 12.8 μM
row,Compound,FPT inhibition
1,Cc1cc(C(=O)N2CCC(=C3c4ccc(Cl)cc4CCc4cccnc43)CC2)cc(Cl)n1 [Example 124],37% at 12.8 μM

# Same assay, conditions: at 13 μM
row,Compound,FPT inhibition
1,NC(Cc1ccccc1)C(=O)N1CCN(C2c3ccc(Cl)cc3CCc3cccnc32)CC1 (stereo not shown) [Example 215],30% @

# Same assay, conditions: at 15 μM
row,Compound,FPT inhibition
1,CC(=O)N1CCC(=C2c3ccc(Cl)cc3CCc3c(C)cc[n+]([O-])c32)CC1 [Example 132],22% at 15 μM

# Same assay, conditions: at 15.5 μM
row,Compound,FPT inhibition
1,CC(=O)N1CCC(=C2c3cc(Cl)c(Cl)cc3CCc3cccnc32)CC1 [Example 71C],38% at 15.5 μM

# Same assay, conditions: at 15.6 μM
row,Compound,FPT inhibition
1,CC(=O)N1CCC(=C2c3ccc(Cl)cc3CCc3ccc[n+]([O-])c32)CC1 [Example 73],27% at 15.6 μM

# Same assay, conditions: at 16.4 μM
row,Compound,FPT inhibition
1,CC(=O)N1CCC(=C2c3ccc(Cl)cc3CCc3ccc(C)nc32)CC1 [Example 63],1% at 16.4 μM

# Same assay, conditions: at 46 μM
row,Compound,FPT inhibition
1,O=C(c1cc[n+]([O-])cc1)N1CCC(=C2c3ccncc3CCc3cc(Cl)ccc32)CC1 [Example 144a],47% at 46 μM

# Same assay, conditions: enzyme inhibition; read-out: FPT IC50
row,Compound,IC50
1,O=C(CC1CCCNC1)N1CCN(C2c3ccc(Cl)cc3CCc3cccnc32)CC1 (stereo not shown) [Example 428-A],1.1 µM
2,O=C(Cc1cccnc1)N1CCC(=C2c3ccc(Cl)cc3CCc3cc(Cl)cnc32)CC1 [Example 411-T],0.58 µM
3,CC(C)(C(=O)N1CCN(C2c3ccc(Cl)cc3CCc3cccnc32)CC1)c1ccc[n+]([O-])c1 (stereo not shown) [Example 425-C],1.26 µM
4,NC(=O)N1CCCC(CC(=O)N2CCN(C3c4ccc(Cl)cc4CCc4cccnc43)CC2)C1 (stereo not shown) [Example 431-F],1.75 µM
5,O=C(Cc1ccncc1)N1CCC(=C2c3ccc(Cl)cc3CCc3cc(F)cnc32)CC1 [Example 411-M],0.65 µM
6,CCCCNc1c(Br)cnc2c1CCc1cc(Cl)ccc1C2=C1CCN(C(=O)Cc2ccncc2)CC1 [Example 400-M],0.9 µM
7,O=C(Cc1ccc[n+]([O-])c1)N1CCC(=C2c3ccc(Cl)cc3CCc3cc(F)cnc32)CC1 [Example 411-Q],~10 µM
8,COC(=O)c1ccc2c(c1)CCc1cccnc1C2=C1CCN(C(=O)Cc2ccncc2)CC1 [Example 434-A],3.5 µM
9,O=C(Nc1ccc[n+]([O-])c1)N1CCN(C2c3ccc(Cl)cc3CCc3cccnc32)CC1 (stereo not shown) [Example 427-A],2.2 µM
10,O=C(Cc1ccc[n+]([O-])c1)N1CCC(=C2c3ccc(Cl)cc3CCc3cc(Cl)cnc32)CC1 [Example 411-U],1.12 µM
11,O=C(Nc1cc[n+]([O-])cc1)N1CCN(C2c3ccc(Cl)cc3CCc3cc(Br)cnc32)CC1 (stereo not shown) [Example 427-B],0.21 µM
12,CN1CCC(CC(=O)N2CCN(C3c4ccc(Cl)cc4CCc4cc(Br)cnc43)CC2)CC1 (stereo not shown) [425-O (5.126)],0.17 µM and 0.14 µM and 0.122 µM and 0.118 µM and 0.178 µM
13,CN1CCCC(CC(=O)N2CCC(=C3c4ccc(Cl)cc4CCc4cc(F)cnc43)CC2)C1 (stereo not shown) [Example 411-S],2.1 µM
14,COC(=O)N1CCC(CC(=O)N2CCN(C3c4ccc(Cl)cc4CCc4cccnc43)CC2)CC1 (stereo not shown) [Example 430],1.3 µM
15,O=C(Cc1ccncc1)N1CCC(=C2c3ccc(Cl)cc3CCc3cc(Cl)ccc32)CC1 [Example 411-L],0.82 µM
